≈ marks a conversion by molar mass, not a printed value. Calls of active or inactive are those of the source. No cut-off for these calls is given here.
How the values were obtained:
[1] = Cytotoxicity against mouse NIH/3T3 cells assessed as cell viability at 25 ug/ml after 72 hrs by MTT assay relative to control; type: cell-based, NIH3T3; details: read-out: Activity
Trichoderma reesei [2] = test: Antifungal activity against Trichoderma reesei ATCC 13631 at 100 ug/ml incubated for 72 hrs by agar disc diffusion assay; type: functional; details: for zone of inhibition at 100 µg/mL: ATCC 13631, 72 h, read-out: IZ
Staphylococcus aureus [3] = test: Antibacterial activity against Staphylococcus aureus MTCC 3381 at 100 ug/ml incubated for 12 hrs by agar disc diffusion assay; type: functional; details: for zone of inhibition at 100 µg/mL: MTCC 3381, 12 h, read-out: IZ
Streptomyces griseus [4] = test: Potency index, ratio of ampicillin MIC to compound MIC for Streptomyces griseus MTCC 4734 by serial dilution method; type: functional
Bacillus subtilis [5] = test: Potency index, ratio of ampicillin MIC to compound MIC for Bacillus subtilis MTCC 10619 by serial dilution method; type: functional
Bacillus subtilis [6] = test: Antibacterial activity against Bacillus subtilis MTCC 10619 at 100 ug/ml incubated for 12 hrs by agar disc diffusion assay; type: functional; details: for zone of inhibition at 100 µg/mL: MTCC 10619, 12 h, read-out: IZ
Aspergillus niger [7] = test: Antifungal activity against Aspergillus niger ATCC 9029 at 100 ug/ml incubated for 72 hrs by agar disc diffusion assay; type: functional; details: for zone of inhibition at 100 µg/mL: ATCC 9029, 72 h, read-out: IZ
Fusarium oxysporum [8] = test: Antifungal activity against Fusarium oxysporum ATCC 62506 at 100 ug/ml incubated for 72 hrs by agar disc diffusion assay; type: functional; details: for zone of inhibition at 100 µg/mL: ATCC 62506, 72 h, read-out: IZ
Escherichia coli [9] = test: Antibacterial activity against Escherichia coli MTCC 443 incubated for 24 hrs by serial dilution method; type: functional
[10] = Cytotoxicity against mouse NIH/3T3 cells assessed as cell viability at 250 ug/ml after 72 hrs by MTT assay relative to control; type: cell-based, NIH3T3; details: read-out: Activity
Staphylococcus aureus [11] = test: Antibacterial activity against Staphylococcus aureus MTCC 3381 incubated for 24 hrs by serial dilution method; type: functional
Trichoderma reesei [12] = test: Antifungal activity against Trichoderma reesei ATCC 13631 incubated for 24 hrs by serial dilution method; type: functional
[13] = Cytotoxicity against mouse NIH/3T3 cells assessed as cell viability at 50 ug/ml after 72 hrs by MTT assay relative to control; type: cell-based, NIH3T3; details: read-out: Activity
Escherichia coli [14] = test: Antibacterial activity against Escherichia coli MTCC 443 at 100 ug/ml incubated for 12 hrs by agar disc diffusion assay; type: functional; details: for zone of inhibition at 100 µg/mL: MTCC 443, 12 h, read-out: IZ
Streptomyces griseus [15] = test: Antibacterial activity against Streptomyces griseus MTCC 4734 at 100 ug/ml incubated for 12 hrs by agar disc diffusion assay; type: functional; details: for zone of inhibition at 100 µg/mL: MTCC 4734, 12 h, read-out: IZ
Talaromyces funiculosus [16] = test: Antifungal activity against Penicillium funiculosum ATCC 11797 at 100 ug/ml incubated for 72 hrs by agar disc diffusion assay; type: functional; details: for zone of inhibition at 100 µg/mL: ATCC 11797, 72 h, read-out: IZ
Fusarium oxysporum [17] = test: Antifungal activity against Fusarium oxysporum ATCC 62506 incubated for 24 hrs by serial dilution method; type: functional
Streptomyces griseus [18] = test: Antibacterial activity against Streptomyces griseus MTCC 4734 incubated for 24 hrs by serial dilution method; type: functional
Aspergillus niger [19] = test: Antifungal activity against Aspergillus niger ATCC 9029 incubated for 24 hrs by serial dilution method; type: functional
[20] = Cytotoxicity against mouse NIH/3T3 cells assessed as cell viability at 100 ug/ml after 72 hrs by MTT assay relative to control; type: cell-based, NIH3T3; details: read-out: Activity
Bacillus subtilis [21] = test: Potency index, ratio of chloramphenicol MIC to compound MIC for Bacillus subtilis MTCC 10619 by serial dilution method; type: functional
Talaromyces funiculosus [22] = test: Antifungal activity against Penicillium funiculosum ATCC 11797 incubated for 24 hrs by serial dilution method; type: functional
Bacillus subtilis [23] = test: Antibacterial activity against Bacillus subtilis MTCC 10619 incubated for 24 hrs by serial dilution method; type: functional

SMILES	MIC (Escherichia coli [9]; MTCC 443, 24 h)	MIC (Trichoderma reesei [12])	MIC (Fusarium oxysporum [17]; ATCC 62506, 24 h)	MIC (Streptomyces griseus [18]; MTCC 4734, 24 h)	MIC (Aspergillus niger [19]; ATCC 9029, 24 h)	MIC (Talaromyces funiculosus [22]; ATCC 11797, 24 h)	MIC (Staphylococcus aureus [11])	MIC (Bacillus subtilis [23])	viability at 72 h, 25 ug/ml [1]	inhibition zone (IZ) (Trichoderma reesei [2])	zone of inhibition at 100 µg/mL (Staphylococcus aureus [3])	Ratio (Bacillus subtilis [5])	zone of inhibition at 100 µg/mL (Bacillus subtilis [6])	zone of inhibition at 100 µg/mL (Aspergillus niger [7])	zone of inhibition at 100 µg/mL (Fusarium oxysporum [8])	zone of inhibition at 100 µg/mL (Escherichia coli [14])	zone of inhibition at 100 µg/mL (Streptomyces griseus [15])	zone of inhibition at 100 µg/mL (Talaromyces funiculosus [16])	inhibition zone (IZ) (Staphylococcus aureus [3])	inhibition zone (IZ) (Bacillus subtilis [6])	other results
O=C1Oc2cc([N+](=O)[O-])ccc2N/C1=C\C(=O)c1cccc2ccccc12	12.5 mg/L (≈ 34.7 µM)		25 mg/L (≈ 69.4 µM)			25 mg/L (≈ 69.4 µM)		inactive	93.5%		8 mm				18 mm	26 mm		20 mm		inactive	zone of inhibition at 100 µg/mL (Trichoderma reesei [2]): 18 mm; inhibition zone (IZ) (Aspergillus niger [7]): inactive; viability at 72 h, 250 ug/ml [10]: 76.3%; MIC (Staphylococcus aureus [11]; MTCC 3381, 24 h): 100 mg/L (≈ 278 µM); MIC (Trichoderma reesei [12]; ATCC 13631, 24 h): 25 mg/L (≈ 69.4 µM); viability at 72 h, 50 ug/ml [13]: 88.9%; inhibition zone (IZ) (Streptomyces griseus [15]): inactive; MIC (Streptomyces griseus [18]): inactive; MIC (Aspergillus niger [19]): inactive; viability at 72 h, 100 ug/ml [20]: 83%
O=C1Oc2ccccc2N/C1=C\C(=O)c1ccc(-c2ccccc2)cc1	25 mg/L (≈ 73.2 µM)	inactive			100 mg/L (≈ 293 µM)	25 mg/L (≈ 73.2 µM)	inactive	inactive		inactive				4 mm		14 mm		14 mm	inactive	inactive	inhibition zone (IZ) (Fusarium oxysporum [8]): inactive; inhibition zone (IZ) (Streptomyces griseus [15]): inactive; MIC (Fusarium oxysporum [17]): inactive; MIC (Streptomyces griseus [18]): inactive

More lines, main results first:

MIC (Escherichia coli [9]; MTCC 443, 24 h)	MIC (Trichoderma reesei [12])	MIC (Fusarium oxysporum [17]; ATCC 62506, 24 h)	MIC (Streptomyces griseus [18]; MTCC 4734, 24 h)	MIC (Aspergillus niger [19]; ATCC 9029, 24 h)	MIC (Talaromyces funiculosus [22]; ATCC 11797, 24 h)	MIC (Staphylococcus aureus [11])	MIC (Bacillus subtilis [23])	SMILES	viability at 72 h, 25 ug/ml [1]	inhibition zone (IZ) (Trichoderma reesei [2])	zone of inhibition at 100 µg/mL (Staphylococcus aureus [3])	Ratio (Bacillus subtilis [5])	zone of inhibition at 100 µg/mL (Bacillus subtilis [6])	zone of inhibition at 100 µg/mL (Aspergillus niger [7])	zone of inhibition at 100 µg/mL (Fusarium oxysporum [8])	zone of inhibition at 100 µg/mL (Escherichia coli [14])	zone of inhibition at 100 µg/mL (Streptomyces griseus [15])	zone of inhibition at 100 µg/mL (Talaromyces funiculosus [16])	inhibition zone (IZ) (Staphylococcus aureus [3])	inhibition zone (IZ) (Bacillus subtilis [6])	other results
25 mg/L (≈ 91.2 µM)	inactive	50 mg/L (≈ 182 µM)	3.12 mg/L (≈ 11.4 µM)	100 mg/L (≈ 365 µM)	100 mg/L (≈ 365 µM)			O=C1Oc2cc([N+](=O)[O-])ccc2N/C1=C\C(=O)C1CC1	94.3%	inactive	10 mm	8	24 mm	8 mm	10 mm	18 mm	28 mm	6 mm			Ratio (Streptomyces griseus [4]): 4; viability at 72 h, 250 ug/ml [10]: 76.3%; MIC (Staphylococcus aureus [11]; MTCC 3381, 24 h): 12.5 mg/L (≈ 45.6 µM); viability at 72 h, 50 ug/ml [13]: 90.9%; viability at 72 h, 100 ug/ml [20]: 83.3%; Ratio (Bacillus subtilis [21]): 2; MIC (Bacillus subtilis [23]; MTCC 10619, 24 h): 3.12 mg/L (≈ 11.4 µM)
		25 mg/L (≈ 65.5 µM)	100 mg/L (≈ 262 µM)	25 mg/L (≈ 65.5 µM)		inactive	inactive	O=C1Oc2ccc(Cl)cc2N/C1=C\C(=O)c1ccc(C2CCCCC2)cc1						10 mm	14 mm		6 mm		inactive	inactive	zone of inhibition at 100 µg/mL (Trichoderma reesei [2]): 16 mm; MIC (Escherichia coli [9]): inactive; MIC (Trichoderma reesei [12]; ATCC 13631, 24 h): 25 mg/L (≈ 65.5 µM); inhibition zone (IZ) (Escherichia coli [14]): inactive; inhibition zone (IZ) (Talaromyces funiculosus [16]): inactive; MIC (Talaromyces funiculosus [22]): inactive
100 mg/L (≈ 288 µM)	inactive		50 mg/L (≈ 144 µM)	50 mg/L (≈ 144 µM)	50 mg/L (≈ 144 µM)	inactive		O=C1Oc2ccccc2N/C1=C\C(=O)c1ccc(C2CCCCC2)cc1		inactive		4	22 mm	6 mm		8 mm	10 mm	6 mm	inactive		inhibition zone (IZ) (Fusarium oxysporum [8]): inactive; MIC (Fusarium oxysporum [17]): inactive; MIC (Bacillus subtilis [23]; MTCC 10619, 24 h): 6.25 mg/L (≈ 18 µM)

From ChEMBL document CHEMBL4219034, “Synthesis, antimicrobial activity, structure-activity relationship and cytotoxic studies of a new series of functionalized (Z)-3-(2-oxo-2-substituted ethylidene)-3,4-dihydro-2H-benzo[b][1,4]oxazin-2-ones” (Bioorg Med Chem Lett, 2017)
